This assay concerns Kyn levels in BxPC3 cells (kynurenine generated by IDO1). Kind of assay: Cellular Kyn assay (automated Kyn screening assay). Format: cell-based. Conditions: Homo sapiens, BXPC-3, 48 h, IFN-γ, L-Trp and compounds 48 h, mean ± SD, read-out: IC50 (Kyn assay), reduction of kynurenine levels.
For `CC(C)(C)c1ccc(S(=O)(=O)N2C[C@H]3C[C@H]4C[C@H](C4(C)C)[C@@]3(COC(=O)Nc3cccc(Br)c3)C2)cc1` [compound 39, ((3aS,4R,6R,7aS)-2-((4-(tert-butyl)phenyl)sulfonyl)-5,5-dimethyloctahydro-3aH-4,6-methanoisoindol-3a-yl)methyl (3-bromophenyl)carbamate], the IC50 (in general, the point on the concentration scale where inhibition reaches its midpoint) stood at 9900 ± 1580 nM. The figure for `CC(C)(C)c1ccc(S(=O)(=O)N2C[C@H]3C[C@H]4C[C@H](C4(C)C)[C@@]3(COC(=O)Nc3cccc(N=[N+]=[N-])c3)C2)cc1` [compound 41, ((3aS,4R,6R,7aS)-2-((4-(tert-butyl)phenyl)sulfonyl)-5,5-dimethyloctahydro-3aH-4,6-methanoisoindol-3a-yl)methyl (3-azidophenyl)carbamate] is over 10000 nM.

With `CC(C)(C)c1ccc(S(=O)(=O)N2C[C@H]3C[C@H]4C[C@H](C4(C)C)[C@@]3(COC(=O)Nc3ccc(O)cc3)C2)cc1` [compound 42, ((3aS,4R,6R,7aS)-2-((4-(tert-butyl)phenyl)sulfonyl)-5,5-dimethyloctahydro-3aH-4,6-methanoisoindol-3a-yl)methyl (4-hydroxyphenyl)carbamate], the IC50 was over 10000 nM. For `COc1ccc(NC(=O)OC[C@]23CN(S(=O)(=O)c4ccc(C(C)(C)C)cc4)C[C@H]2C[C@H]2C[C@@H]3C2(C)C)cc1` [compound 44, ((3aS,4R,6R,7aS)-2-((4-(tert-butyl)phenyl)sulfonyl)-5,5-dimethyloctahydro-3aH-4,6-methanoisoindol-3a-yl)methyl (4-methoxyphenyl)carbamate], the IC50 is 1200 ± 200 nM. As for `CC(C)(C)c1ccc(S(=O)(=O)N2C[C@H]3C[C@H]4C[C@H](C4(C)C)[C@@]3(COC(=O)Nc3ccc(C(F)(F)F)cc3)C2)cc1` [compound 45, ((3aS,4R,6R,7aS)-2-((4-(tert-butyl)phenyl)sulfonyl)-5,5-dimethyloctahydro-3aH-4,6-methanoisoindol-3a-yl)methyl (4-(trifluoromethyl)phenyl)carbamate], the IC50 was over 10000 nM. `CC(C)(C)c1ccc(S(=O)(=O)N2C[C@H]3C[C@H]4C[C@H](C4(C)C)[C@@]3(COC(=O)Nc3ccc(C#N)cc3)C2)cc1` [compound 47, ((3aS,4R,6R,7aS)-2-((4-(tert-butyl)phenyl)sulfonyl)-5,5-dimethyloctahydro-3aH-4,6-methanoisoindol-3a-yl)methyl (4-cyanophenyl)carbamate]: the IC50 amounted to 2100 ± 800 nM. The figure for `CC(C)(C)c1ccc(S(=O)(=O)N2C[C@H]3C[C@H]4C[C@H](C4(C)C)[C@@]3(COC(=O)Nc3ccc(C#CCCO)cc3)C2)cc1` [compound 53, ((3aS,4R,6R,7aS)-2-((4-(tert-butyl)phenyl)sulfonyl)-5,5-dimethyloctahydro-3aH-4,6-methanoisoindol-3a-yl)methyl (4-(4-hydroxybut-1-yn-1-yl)phenyl)carbamate] is 2500 ± 200 nM; for `Cc1ccc(NC(=O)OC[C@]23CN(S(=O)(=O)C(C)C)C[C@H]2C[C@H]2C[C@@H]3C2(C)C)cc1` [compound 54, ((3aS,4R,6R,7aS)-2-(isopropylsulfonyl)-5,5-dimethyloctahydro-3aH-4,6-methanoisoindol-3a-yl) methyl p-tolylcarbamate] it is 4700 ± 410 nM. For the compound `Cc1ccc(NC(=O)OC[C@]23CN(S(=O)(=O)C4CCCCC4)C[C@H]2C[C@H]2C[C@@H]3C2(C)C)cc1` [compound 55, ((3aS,4R,6R,7aS)-2-(cyclohexylsulfonyl)-5,5-dimethyloctahydro-3aH-4,6-methanoisoindol-3a-yl)methyl p-tolylcarbamate], the IC50 amounted to 5100 ± 400 nM. In the case of `Cc1ccc(NC(=O)OC[C@]23CN(S(=O)(=O)c4ccc(C(F)(F)F)cc4)C[C@H]2C[C@H]2C[C@@H]3C2(C)C)cc1` [compound 56, ((3aS,4R,6R,7aS)-5,5-dimethyl-2-((4-(trifluoromethyl)phenyl)sulfonyl)octahydro-3aH-4,6-methanoisoindol-3a-yl)methyl p-tolylcarbamate] it was 2500 ± 1100 nM; in that of `COc1ccc(S(=O)(=O)N2C[C@H]3C[C@H]4C[C@H](C4(C)C)[C@@]3(COC(=O)Nc3ccc(C)cc3)C2)cc1` [compound 57, ((3aS,4R,6R,7aS)-2-((4-methoxyphenyl)sulfonyl)-5,5-dimethyloctahydro-3aH-4,6-methanoisoindol-3a-yl)methyl p-tolylcarbamate], over 10000 nM.

Take `Cc1ccc(NC(=O)OC[C@]23CN(S(=O)(=O)c4ccc(OC(F)(F)F)cc4)C[C@H]2C[C@H]2C[C@@H]3C2(C)C)cc1` [compound 58, ((3aS,4R,6R,7aS)-5,5-dimethyl-2-((4-(trifluoromethoxy)phenyl)sulfonyl)octahydro-3aH-4,6-methanoisoindol-3a-yl)methyl p-tolylcarbamate]: the IC50 worked out at 3000 ± 1300 nM.

In the case of `Cc1ccc(NC(=O)OC[C@]23CN(S(=O)(=O)c4ccccc4Br)C[C@H]2C[C@H]2C[C@@H]3C2(C)C)cc1` [compound 59, ((3aS,4R,6R,7aS)-2-((2-bromophenyl)sulfonyl)-5,5-dimethyloctahydro-3aH-4,6-methanoisoindol-3a-yl)methyl p-tolylcarbamate], the IC50 came out at 6200 ± 1700 nM. In the case of `CC1(C)[C@H]2C[C@@H]3CN(S(=O)(=O)c4cccnc4)C[C@]3(COC(=O)Nc3ccc(I)cc3)[C@@H]1C2` [compound 61, ((3aS,4R,6R,7aS)-5,5-dimethyl-2-(pyridin-3-ylsulfonyl)octahydro-3aH-4,6-methanoisoindol-3a-yl)methyl (4-iodophenyl)carbamate] it was 6100 ± 900 nM; in that of `Cc1ccc(S(=O)(=O)N2C[C@H]3C[C@H]4C[C@H](C4(C)C)[C@@]3(COC(=O)Nc3ccc(I)cc3)C2)cn1` [compound 62, ((3aS,4R,6R,7aS)-5,5-dimethyl-2-((6-methylpyridin-3-yl)sulfonyl)octahydro-3aH-4,6-methanoisoindol-3a-yl)methyl (4-iodophenyl)carbamate], 1300 ± 300 nM; in that of `CC1(C)[C@H]2C[C@@H]3CN(S(=O)(=O)c4cccs4)C[C@]3(COC(=O)Nc3ccc(I)cc3)[C@@H]1C2` [compound 63, ((3aS,4R,6R,7aS)-5,5-dimethyl-2-(thiophen-2-ylsulfonyl)octahydro-3aH-4,6-methanoisoindol-3a-yl)methyl (4-iodophenyl)carbamate], 3500 ± 300 nM. For the compound `CC1(C)[C@H]2C[C@@H]3CN(S(=O)(=O)c4ccc5ccccc5c4)C[C@]3(COC(=O)Nc3ccc(I)cc3)[C@@H]1C2` [compound 64, ((3aS,4R,6R,7aS)-5,5-dimethyl-2-(naphthalen-2-ylsulfonyl)octahydro-3aH-4,6-methanoisoindol-3a-yl)methyl (4-iodophenyl)carbamate], the IC50 is 400 ± 100 nM. Turning to `CC1(C)[C@H]2C[C@@H]3CN(S(=O)(=O)c4ccccc4)C[C@]3(COC(=O)Nc3ccc(I)cc3)[C@@H]1C2` [compound 65, ((3aS,4R,6R,7aS)-5,5-dimethyl-2-(phenylsulfonyl)octahydro-3aH-4,6-methanoisoindol-3a-yl)methyl (4-iodophenyl)carbamate], the IC50 is 2600 ± 500 nM. The figure for `Cc1ccccc1S(=O)(=O)N1C[C@H]2C[C@H]3C[C@H](C3(C)C)[C@@]2(COC(=O)Nc2ccc(I)cc2)C1` [compound 66, ((3aS,4R,6R,7aS)-5,5-dimethyl-2-(o-tolylsulfonyl)octahydro-3aH-4,6-methanoisoindol-3a-yl)methyl (4-iodophenyl)carbamate] is 650 ± 270 nM.

Source of the values: publication PMC12811658, “Design, Synthesis, and Structural Evolution of Pseudo‐Natural Product IDO1 Inhibitors and Degraders” (Angewandte Chemie (International Ed. in English), 2025).
